Laboratory results as given in patent US8192962B2, “Processes for detecting toxic substances” (Daikin Industries, Ltd., priority 2001, dated 2012).

Tested on: Transport facilitation protein genes
Assay: DNA chip mRNA expression in yeast, transport facilitation protein genes (Table 5)
Type: cell-based, Saccharomyces cerevisiae S288C
Outline: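 Measured as treated-to-untreated fluorescence ratio on a full-genome yeast DNA chip. Cells (S288C, YPD, 25° C.) were exposed in log phase for two hours to one chemical, dosed to curb growth without killing.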

SMILES: [Cl][Hg][Cl] [(3), HgCl2]
- The level of expressed mRNA in the presence of chemical substance/The level of expressed mRNA in the absence of chemical substance (yeast gene YBL030C): 4.5
- The level of expressed mRNA in the presence of chemical substance/The level of expressed mRNA in the absence of chemical substance (yeast gene YBL099W): 3.1
- The level of expressed mRNA in the presence of chemical substance/The level of expressed mRNA in the absence of chemical substance (yeast gene YBR052C): 1.5
- The level of expressed mRNA in the presence of chemical substance/The level of expressed mRNA in the absence of chemical substance (yeast gene YBR068C): 1.9
- The level of expressed mRNA in the presence of chemical substance/The level of expressed mRNA in the absence of chemical substance (yeast gene YBR127C): 2.2
- The level of expressed mRNA in the presence of chemical substance/The level of expressed mRNA in the absence of chemical substance (yeast gene YBR132C): 2.4
- The level of expressed mRNA in the presence of chemical substance/The level of expressed mRNA in the absence of chemical substance (yeast gene YBR207W): 0.8
- The level of expressed mRNA in the presence of chemical substance/The level of expressed mRNA in the absence of chemical substance (yeast gene YBR293W): 1.0
- The level of expressed mRNA in the presence of chemical substance/The level of expressed mRNA in the absence of chemical substance (yeast gene YBR294W): 0.9
- The level of expressed mRNA in the presence of chemical substance/The level of expressed mRNA in the absence of chemical substance (yeast gene YBR295W): 3.3
- The level of expressed mRNA in the presence of chemical substance/The level of expressed mRNA in the absence of chemical substance (yeast gene YBR298C): 1.6
- The level of expressed mRNA in the presence of chemical substance/The level of expressed mRNA in the absence of chemical substance (yeast gene YCL025C): 2.5
- The level of expressed mRNA in the presence of chemical substance/The level of expressed mRNA in the absence of chemical substance (yeast gene YCL038C): 1.4
- The level of expressed mRNA in the presence of chemical substance/The level of expressed mRNA in the absence of chemical substance (yeast gene YCR024C-A): 3.2
- The level of expressed mRNA in the presence of chemical substance/The level of expressed mRNA in the absence of chemical substance (yeast gene YCR037C): 0.8
- The level of expressed mRNA in the presence of chemical substance/The level of expressed mRNA in the absence of chemical substance (yeast gene YCR098C): 1.7
- The level of expressed mRNA in the presence of chemical substance/The level of expressed mRNA in the absence of chemical substance (yeast gene YDL128W): 2.1
- The level of expressed mRNA in the presence of chemical substance/The level of expressed mRNA in the absence of chemical substance (yeast gene YDL198C): 2.1
- The level of expressed mRNA in the presence of chemical substance/The level of expressed mRNA in the absence of chemical substance (yeast gene YDL210W): 2.7
- The level of expressed mRNA in the presence of chemical substance/The level of expressed mRNA in the absence of chemical substance (yeast gene YDL245C): 1.6
- The level of expressed mRNA in the presence of chemical substance/The level of expressed mRNA in the absence of chemical substance (yeast gene YDR038C): 3.1
- The level of expressed mRNA in the presence of chemical substance/The level of expressed mRNA in the absence of chemical substance (yeast gene YDR039C): 3.2
- The level of expressed mRNA in the presence of chemical substance/The level of expressed mRNA in the absence of chemical substance (yeast gene YDR086C): 1.2
- The level of expressed mRNA in the presence of chemical substance/The level of expressed mRNA in the absence of chemical substance (yeast gene YDR270W): 1.4
- The level of expressed mRNA in the presence of chemical substance/The level of expressed mRNA in the absence of chemical substance (yeast gene YDR298C): 2.6
- The level of expressed mRNA in the presence of chemical substance/The level of expressed mRNA in the absence of chemical substance (yeast gene YDR342C): 12.2
- The level of expressed mRNA in the presence of chemical substance/The level of expressed mRNA in the absence of chemical substance (yeast gene YDR343C): 20.6
- The level of expressed mRNA in the presence of chemical substance/The level of expressed mRNA in the absence of chemical substance (yeast gene YDR345C): 5.6
- The level of expressed mRNA in the presence of chemical substance/The level of expressed mRNA in the absence of chemical substance (yeast gene YDR387C): 1.2
- The level of expressed mRNA in the presence of chemical substance/The level of expressed mRNA in the absence of chemical substance (yeast gene YDR497C): 0.6
- The level of expressed mRNA in the presence of chemical substance/The level of expressed mRNA in the absence of chemical substance (yeast gene YEL027W): 3.4
- The level of expressed mRNA in the presence of chemical substance/The level of expressed mRNA in the absence of chemical substance (yeast gene YEL063C): 2.4
- The level of expressed mRNA in the presence of chemical substance/The level of expressed mRNA in the absence of chemical substance (yeast gene YEL065W): 1.2
- The level of expressed mRNA in the presence of chemical substance/The level of expressed mRNA in the absence of chemical substance (yeast gene YER053C): 1.9
- The level of expressed mRNA in the presence of chemical substance/The level of expressed mRNA in the absence of chemical substance (yeast gene YFL011W): 3.7
- The level of expressed mRNA in the presence of chemical substance/The level of expressed mRNA in the absence of chemical substance (yeast gene YFL041W): 1.4
- The level of expressed mRNA in the presence of chemical substance/The level of expressed mRNA in the absence of chemical substance (yeast gene YFL050C): 1.1
- The level of expressed mRNA in the presence of chemical substance/The level of expressed mRNA in the absence of chemical substance (yeast gene YFL054C): 1.4
- The level of expressed mRNA in the presence of chemical substance/The level of expressed mRNA in the absence of chemical substance (yeast gene YGL006W): 1.3
- The level of expressed mRNA in the presence of chemical substance/The level of expressed mRNA in the absence of chemical substance (yeast gene YGL008C): 3.1
- The level of expressed mRNA in the presence of chemical substance/The level of expressed mRNA in the absence of chemical substance (yeast gene YGL104C): 2.1
- The level of expressed mRNA in the presence of chemical substance/The level of expressed mRNA in the absence of chemical substance (yeast gene YGL167C): 1.6
- The level of expressed mRNA in the presence of chemical substance/The level of expressed mRNA in the absence of chemical substance (yeast gene YGL255W): 0.9
- The level of expressed mRNA in the presence of chemical substance/The level of expressed mRNA in the absence of chemical substance (yeast gene YGR055W): 12.0
- The level of expressed mRNA in the presence of chemical substance/The level of expressed mRNA in the absence of chemical substance (yeast gene YGR065C): 2.6
- The level of expressed mRNA in the presence of chemical substance/The level of expressed mRNA in the absence of chemical substance (yeast gene YGR082W): 2.2
- The level of expressed mRNA in the presence of chemical substance/The level of expressed mRNA in the absence of chemical substance (yeast gene YGR096W): 1.1
- The level of expressed mRNA in the presence of chemical substance/The level of expressed mRNA in the absence of chemical substance (yeast gene YGR138C): 1.0
- The level of expressed mRNA in the presence of chemical substance/The level of expressed mRNA in the absence of chemical substance (yeast gene YGR191W): 1.6
- The level of expressed mRNA in the presence of chemical substance/The level of expressed mRNA in the absence of chemical substance (yeast gene YGR197C): 2.5
